Experimental data taken from patent US10722501B2 (BAYER AKTIENGESELLSCHAFT, priority 2016, dated 2020).

biological target: T1, recombinant full-length human prolyl endopeptidase (PREP) (Homo sapiens, UniProt P48147); experiment: Biochemical human prolyl endopeptidase (PREP) assay with fluorescently labelled substrate; settings: substrate Z-Gly-Pro-AMC 50 μM, 32° C., 60 min; some as mean values from multiple independent determinations
T1 construct: To recombinant full-length human prolyl endopeptidase (PREP, R&D-Systems, 4308-SE); purchased R&D-Systems 4308-SE
T1 sequence (P48147 1-710): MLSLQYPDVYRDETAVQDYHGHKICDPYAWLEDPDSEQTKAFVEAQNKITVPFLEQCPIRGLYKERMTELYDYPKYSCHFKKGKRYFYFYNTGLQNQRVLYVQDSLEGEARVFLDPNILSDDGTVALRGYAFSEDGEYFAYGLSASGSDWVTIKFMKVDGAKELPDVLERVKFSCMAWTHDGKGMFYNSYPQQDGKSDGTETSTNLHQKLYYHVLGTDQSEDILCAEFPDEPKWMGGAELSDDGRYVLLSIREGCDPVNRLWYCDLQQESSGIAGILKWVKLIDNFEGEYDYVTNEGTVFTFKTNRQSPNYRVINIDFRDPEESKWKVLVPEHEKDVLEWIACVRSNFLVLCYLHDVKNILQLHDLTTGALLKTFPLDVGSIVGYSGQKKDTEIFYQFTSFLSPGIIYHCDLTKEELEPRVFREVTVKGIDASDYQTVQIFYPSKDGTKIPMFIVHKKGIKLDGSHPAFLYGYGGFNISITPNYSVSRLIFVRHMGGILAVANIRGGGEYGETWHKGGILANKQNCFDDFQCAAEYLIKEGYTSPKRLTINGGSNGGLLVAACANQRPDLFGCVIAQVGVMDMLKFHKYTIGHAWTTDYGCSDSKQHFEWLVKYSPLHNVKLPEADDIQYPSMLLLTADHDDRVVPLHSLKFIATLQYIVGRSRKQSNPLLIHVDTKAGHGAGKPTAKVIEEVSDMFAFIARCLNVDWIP
Method in brief: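 0.4 nM (final, example) recombinant PREP in pH 7.5 Tris buffer with EDTA, GSH, BSA and Brij-35; compounds at 1 nM to 30 μM. Reaction started with 50 μM Z-Gly-Pro-AMC and followed by fluorescence (ex 360/em 465 nm) at 32° C for 60 min. IC50 interpolated from percent activity based on initial slopes.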

| SMILES | IC50 |
| --- | --- |
| O=C([C@@H]1CCCc2nn(Cc3cc(C(F)(F)F)nc4ccccc34)c(=O)n21)N1CC[C@H](O)C1 [Example 496, (5S)-5-{[(3S)-3-Hydroxypyrrolidin-1-yl]carbonyl}-2-{[2-(trifluoromethyl)quinolin-4-yl]methyl}-5,6,7,8-tetrahydro[1,2,4]triazolo[4,3-a]pyridin-3(2H)-one] | 18 nM |
| Cc1ccc(Cn2nc3n(c2=O)[C@H](C(=O)N2CCCC2)CCC3)cc1 [Example 26, (5S)-2-(4-Methylbenzyl)-5-(pyrrolidin-1-ylcarbonyl)-5,6,7,8-tetrahydro[1,2,4]triazolo[4,3-a]pyridin-3(2H)-one] | 0.73 nM |
| O=C([C@@H]1CCCc2nn(Cc3cccc(C(F)(F)F)n3)c(=O)n21)N1CCC(F)(F)C1 [Example 368, (5S)-5-[(3,3-Difluoropyrrolidin-1-yl)carbonyl]-2-{[6-(trifluoromethyl)pyridin-2-yl]methyl}-5,6,7,8-tetrahydro[1,2,4]triazolo[4,3-a]pyridin-3(2H)-one] | 9 nM |
| O=C([C@@H]1CCCc2nn(Cc3ccc(C(F)(F)F)c(Cl)c3)c(=O)n21)N1CCC(F)(F)C1 [Example 460, (5S)-2-[3-Chloro-4-(trifluoromethyl)benzyl]-5-[(3,3-difluoropyrrolidin-1-yl)carbonyl]-5,6,7,8-tetrahydro[1,2,4]triazolo[4,3-a]pyridin-3(2H)-one] | 0.17 nM |
| O=C([C@@H]1CCCc2nn(Cc3cncc(C(F)(F)F)c3)c(=O)n21)N1C[C@@H](F)[C@@H](F)C1 [Example 578, (5S)-5-{[(3R,4S)-3,4-Difluoropyrrolidin-1-yl]carbonyl}-2-{[5-(trifluoromethyl)pyridin-3-yl]methyl}-5,6,7,8-tetrahydro[1,2,4]triazolo[4,3-a]pyridin-3(2H)-one] | 2.3 nM |
| O=C([C@@H]1CCCc2nn(Cc3cc(F)c(F)cc3F)c(=O)n21)N1CCC(F)(F)C1 [Example 490, (5S)-5-[(3,3-Difluoropyrrolidin-1-yl)carbonyl]-2-(2,4,5-trifluorobenzyl)-5,6,7,8-tetrahydro[1,2,4]triazolo[4,3-a]pyridin-3(2H)-one] | 0.38 nM |
| O=C(C1CCCc2nn(Cc3ccc(Cl)c(Cl)c3)c(=O)n21)N1CCC(F)(F)C1 (racemic) [Example 45, (5RS)-2-(3,4-Dichlorobenzyl)-5-[(3,3-difluoropyrrolidin-1-yl)carbonyl]-5,6,7,8-tetrahydro[1,2,4]triazolo[4,3-a]pyridin-3(2H)-one] | 1.6 nM |
| O=C([C@@H]1CCCc2nn(Cc3ccc(F)c(F)c3)c(=O)n21)N1CC[C@H](F)C1 [Example 466, (5S)-2-(3,4-Difluorobenzyl)-5-{[(3S)-3-fluoropyrrolidin-1-yl]carbonyl}-5,6,7,8-tetrahydro[1,2,4]triazolo[4,3-a]pyridin-3(2H)-one] | 0.41 nM |
| CC1Cc2nn(Cc3ccc(C(F)(F)F)nc3)c(=O)n2C(C(=O)N2CC[C@H](F)C2)C1 (single isomer, unassigned) [Example 138] | 1 nM |
| Cc1ccc(Cn2nc3n(c2=O)[C@H](C(=O)N2CC(C(F)F)C2)CCC3)cc1 [Example 149, (5S)-5-{[3-(Difluoromethyl)azetidin-1-yl]carbonyl}-2-(4-methylbenzyl)-5,6,7,8-tetrahydro[1,2,4]triazolo[4,3-a]pyridin-3(2H)-one] | 2.5 nM |
| O=C([C@@H]1CCCc2nn(Cc3ccc(F)cc3F)c(=O)n21)N1CCC(F)(F)C1 [Example 487, (5S)-2-(2,4-Difluorobenzyl)-5-[(3,3-difluoropyrrolidin-1-yl)carbonyl]-5,6,7,8-tetrahydro[1,2,4]triazolo[4,3-a]pyridin-3(2H)-one] | 0.725 nM |
| Cc1ccc(Cn2nc3n(c2=O)[C@H](C(=O)N2CCC[C@H]2C#N)CCC3)cc1 [Example 109, (2S)-1-{[(5S)-2-(4-Methylbenzyl)-3-oxo-2,3,5,6,7,8-hexahydro[1,2,4]triazolo[4,3-a]pyridin-5-yl]carbonyl}pyrrolidine-2-carbonitrile] | 0.21 nM |
| O=C(C1CCCc2nn(Cc3ccc(C(F)(F)F)nc3)c(=O)n21)N1CCC(F)(F)C1 (racemic) [Example 79, (5RS)-5-[(3,3-Difluoropyrrolidin-1-yl)carbonyl]-2-{[6-(trifluoromethyl)pyridin-3-yl]methyl}-5,6,7,8-tetrahydro[1,2,4]triazolo[4,3-a]pyridin-3(2H)-one] | 6.7 nM |
| O=C([C@@H]1CCCc2nn(Cc3cnc(C(F)(F)F)nc3)c(=O)n21)N1CC[C@H](F)C1 [Example 559, (5S)-5-{[(3S)-3-Fluoropyrrolidin-1-yl]carbonyl}-2-{[2-(trifluoromethyl)pyrimidin-5-yl]methyl}-5,6,7,8-tetrahydro[1,2,4]triazolo[4,3-a]pyridin-3(2H)-one] | 35 nM |
| O=C([C@@H]1CCCc2nn(Cc3ccnc(C(F)(F)F)c3F)c(=O)n21)N1C[C@@H](F)[C@@H](F)C1 [Example 480, (5S)-5-{[(3R,4S)-3,4-Difluoropyrrolidin-1-yl]carbonyl}-2-{[3-fluoro-2-(trifluoromethyl)pyridin-4-yl]methyl}-5,6,7,8-tetrahydro[1,2,4]triazolo[4,3-a]pyridin-3(2H)-one] | 0.52 nM |
| CCn1nc(C(F)(F)F)cc1Cn1nc2n(c1=O)[C@H](C(=O)N1CCC(F)(F)C1)CCC2 [Example 362, (5S)-5-[(3,3-Difluoropyrrolidin-1-yl)carbonyl]-2-{[1-ethyl-3-(trifluoromethyl)-1H-pyrazol-5-yl]methyl}-5,6,7,8-tetrahydro[1,2,4]triazolo[4,3-a]pyridin-3(2H)-one] | 1.35 nM |
| O=C([C@@H]1CCCc2nn(Cc3ncc(F)cc3F)c(=O)n21)N1CC[C@H](F)C1 [Example 581, (5S)-2-[(3,5-Difluoropyridin-2-yl)methyl]-5-{[(3S)-3-fluoropyrrolidin-1-yl]carbonyl}-5,6,7,8-tetrahydro[1,2,4]triazolo[4,3-a]pyridin-3(2H)-one] | 0.3 nM |
| O=C([C@@H]1CCCc2nn(Cc3ccnc(C(F)(F)F)c3)c(=O)n21)N1CCCC1 [Example 74, (5S)-5-(Pyrrolidin-1-ylcarbonyl)-2-{[2-(trifluoromethyl)pyridin-4-yl]methyl}-5,6,7,8-tetrahydro[1,2,4]triazolo[4,3-a]pyridin-3(2H)-one] | 4.75 nM |
| CC1CCC(C(=O)N2CC[C@H](F)C2)n2c1nn(Cc1ccc(C(F)(F)F)nc1)c2=O (single isomer, unassigned) [Example 221] | 980 nM |
| O=C(C1CCc2nn(Cc3ccnc(C(F)(F)F)c3F)c(=O)n21)N1CC[C@H](F)C1 (single isomer, unassigned) [Example 180] | 3.2 nM |
| Cn1ncc2cc(Cn3nc4n(c3=O)C(C(=O)N3CCCC3)CCC4)ccc21 (racemic) [Example 64, (5RS)-2-[(1-Methyl-1H-indazol-5-yl)methyl]-5-(pyrrolidin-1-ylcarbonyl)-5,6,7,8-tetrahydro[1,2,4]triazolo[4,3-a]pyridin-3(2H)-one] | 0.94 nM |
| Cc1ccc(Cn2nc3n(c2=O)[C@H](C(=O)N2C[C@H](F)[C@@H](F)C2)CCC3)cc1 [Example 140, (5S)-5-{[(3S,4S)-3,4-Difluoropyrrolidin-1-yl]carbonyl}-2-(4-methylbenzyl)-5,6,7,8-tetrahydro[1,2,4]triazolo[4,3-a]pyridin-3(2H)-one] | 16 nM |
